Calls of active or inactive are those of the source. The rule behind the calls is not given here.
How the values were obtained:
[1] = target: T1, Solute carrier family 22 member 12 (Homo sapiens, UniProt Q96S37); assay: Inhibition of human URAT1 transfected in HEK293 cells by measuring 14C-uric acid uptake preincubated for 30 mins followed by 14--uric acid addition and measured after 15 mins by liquid scintillation counter analysis; format: cell-based
T1 sequence (Q96S37 whole entry): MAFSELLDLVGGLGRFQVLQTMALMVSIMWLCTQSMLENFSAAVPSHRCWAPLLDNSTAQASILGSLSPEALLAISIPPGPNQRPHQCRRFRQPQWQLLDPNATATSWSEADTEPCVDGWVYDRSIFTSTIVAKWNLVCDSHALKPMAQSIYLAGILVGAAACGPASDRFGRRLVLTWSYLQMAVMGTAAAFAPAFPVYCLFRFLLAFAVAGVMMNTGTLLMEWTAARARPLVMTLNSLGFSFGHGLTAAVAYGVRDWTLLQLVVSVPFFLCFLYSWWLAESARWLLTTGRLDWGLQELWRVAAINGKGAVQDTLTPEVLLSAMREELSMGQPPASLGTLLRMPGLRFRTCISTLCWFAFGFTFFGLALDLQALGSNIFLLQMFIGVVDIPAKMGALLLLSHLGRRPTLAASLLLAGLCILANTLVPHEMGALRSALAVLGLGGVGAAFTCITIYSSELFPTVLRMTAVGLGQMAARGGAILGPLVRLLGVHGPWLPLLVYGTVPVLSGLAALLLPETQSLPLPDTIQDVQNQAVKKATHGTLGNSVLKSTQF

[2] = target: T1, Solute carrier family 22 member 12; assay: Inhibition of URAT1 (unknown origin)
[3] = target: T1, Solute carrier family 22 member 12; assay: Inhibition of human URAT1 transfected in HEK293 cells by measuring 14C-uric acid uptake at 5 uM preincubated for 30 mins followed by 14--uric acid addition and measured after 15 mins by liquid scintillation counter analysis relative to control; format: cell-based; settings: 0.25 h, time 45 min
[4] = target: T2, Solute carrier family 2, facilitated glucose transporter member 9 (Homo sapiens) (UniProt Q9NRM0); assay: Inhibition of GLUT9 (unknown origin) overexpressed in uric acid-induced HEK293 cells at 25 uM by patch clamp analysis relative to control; format: cell-based
T2 sequence (whole entry): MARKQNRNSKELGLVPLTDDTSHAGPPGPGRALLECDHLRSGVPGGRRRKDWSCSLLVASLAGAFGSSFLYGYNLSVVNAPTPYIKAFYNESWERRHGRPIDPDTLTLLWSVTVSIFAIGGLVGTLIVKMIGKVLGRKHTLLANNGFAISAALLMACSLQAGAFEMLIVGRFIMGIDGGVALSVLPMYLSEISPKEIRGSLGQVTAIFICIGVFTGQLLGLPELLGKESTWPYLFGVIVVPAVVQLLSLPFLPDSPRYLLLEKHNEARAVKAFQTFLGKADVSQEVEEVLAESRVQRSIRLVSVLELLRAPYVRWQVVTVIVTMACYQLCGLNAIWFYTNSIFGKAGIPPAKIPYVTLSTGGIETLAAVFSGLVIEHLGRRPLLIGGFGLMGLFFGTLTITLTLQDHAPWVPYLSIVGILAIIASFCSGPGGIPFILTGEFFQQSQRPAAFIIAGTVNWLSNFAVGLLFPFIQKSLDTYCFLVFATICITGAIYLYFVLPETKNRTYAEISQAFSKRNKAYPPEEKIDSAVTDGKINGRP

[5] = target: T3, Solute carrier family 2, facilitated glucose transporter member 9 (Homo sapiens, UniProt Q9NRM0); assay: Inhibition of GLUT9 (unknown origin) overexpressed in uric acid-induced HEK293 cells by patch clamp analysis; format: cell-based
T3 sequence (Q9NRM0 whole entry): T2 sequence (whole entry)

Mus musculus [6] = assay: (§1) Anti-hyperuricemic activity against potassium oxonate-induced male Kunming mouse model assessed as reduction in serum uric acid level at 10 mg/kg, po via gavage administered 1 hr post-potassium oxonate challenge and measured after 7 days on day 7 potassium oxonate injected after 12 hrs fasting and measured followed by 1.5 hrs of compound administration; format: functional; settings: time 7 day
Mus musculus [7] = assay: as §1, with “increase” for “reduction”, “urine” for “serum”, “administration (reference value: 481.6 microM)” for “administration”; format: functional
HK-2 [8] = assay: Cytotoxicity against human HK-2 cells assessed as cell viability at <100 uM incubated for 24 hrs by MTT assay; format: toxicity, cell-based; settings: hk-2, 24 h
[9] = Cytotoxicity against human HK-2 cells assessed as cell viability at 100 uM incubated for 48 hrs by MTT assay relative to control; format: toxicity, cell-based; settings: read-out: Activity
[10] = (§2) Renal toxicity in potassium oxonate-induced male Kunming mouse model assessed as reduction in CR level in serum at 10 mg/kg,po via gavage administered 1 hr post-potassium oxonate challenge and measured after 7 days on day 7 potassium oxonate injected after 12 hrs fasting and measured followed by 1.5 hrs of compound administration by biochemical analyzer; format: organism-based; settings: in vivo, 168 h, time 7 day
[11] = as §2, with “BUN” for “CR”; format: organism-based; settings: in vivo, 168 h, time 7 day
[12] = as §2, with “effect on kidney damage” for “reduction in CR level in serum”, “administration” for “administration by biochemical analyzer”; format: organism-based; settings: in vivo, 168 h, time 7 day
Mus musculus [13] = assay: as §1, with “alleviation of renal tubule dilatation” for “reduction in serum uric acid level”, “administration by H and E staining based analysis” for “administration”; format: functional, organism-based; settings: time 7.0 day
Mus musculus [14] = assay: as §1, with “alleviation of casts formation” for “reduction”, “kidney” for “serum uric acid level”, “administration by H and E staining based analysis” for “administration”; format: functional, organism-based; settings: time 7.0 day
Mus musculus [15] = assay: as §1, with “alleviation of glomerular ischemia” for “reduction”, “kidney” for “serum uric acid level”, “administration by H and E staining based analysis” for “administration”; format: functional, organism-based; settings: time 7.0 day
Mus musculus [16] = assay: as §1, with “alleviation of shrinkage” for “reduction”, “kidney” for “serum uric acid level”, “administration by H and E staining based analysis” for “administration”; format: functional, organism-based; settings: time 7.0 day
[17] = Tmax in male Sprague-Dawley rat at 10 mg/kg, po measured after 24 hrs by LC-MS/MS analysis; format: ADME, organism-based; settings: in vivo
[18] = Cmax in male Sprague-Dawley rat at 10 mg/kg, po measured after 24 hrs by LC-MS/MS analysis; format: ADME, organism-based; settings: in vivo
[19] = Half life in male Sprague-Dawley rat at 10 mg/kg, po measured after 24 hrs by LC-MS/MS analysis; format: ADME, organism-based; settings: in vivo
[20] = AUC (0 to infinity) in male Sprague-Dawley rat at 10 mg/kg, po measured after 24 hrs by LC-MS/MS analysis; format: ADME, organism-based; settings: in vivo
[21] = MRT (0 to infinity) in male Sprague-Dawley rat at 10 mg/kg, po measured after 24 hrs by LC-MS/MS analysis; format: ADME, organism-based; settings: in vivo
HK-2 [22] = assay: Cytotoxicity against human HK-2 cells assessed as cell viability at 100 uM incubated for 48 hrs by MTT assay; format: toxicity, cell-based; settings: hk-2, 48 h

Q: With `C/C(=C\Cc1cccc2c1OC(c1cc3ccccc3s1)CC2=O)C(=O)O` (stereo not drawn) as the molecule, how does the IC50 [1] read?
A: 1.64 µM

Q: For `CC(C)(Sc1ccncc1Cc1ccc(C#N)c2ccccc12)C(=O)O`, which IC50 [2] is on record?
A: 2.08 µM

Q: For `O=C(O)/C=C/Cc1c(O)ccc2c1OC(c1cccs1)CC2=O` (stereo not drawn), which IC50 [1] is on record?
A: 2.18 µM

Q: Which inhibition at 5 µM [3] does the source give for `CC(C)=CCc1c(O)ccc2c1OC(c1ccc(Cl)cc1)CC2=O` (stereo not drawn) here?
A: 11.3%

Q: With `C/C(=C\Cc1cccc2c1OC(c1ccc(Br)c3ccccc13)CC2=O)C(=O)O` (stereo not drawn) as the molecule, how does the IC50 [1] read?
A: 0.16 µM

Q: What about the inhibition [4] of the same molecule?
A: 91%

Q: What about the IC50 [5] of the same molecule?
A: 4.47 µM

Q: What about the Activity (Mus musculus [6]) of the same molecule?
A: 319.1 µM

Q: And the Activity (Mus musculus [7]; time 7 day)?
A: 642.1 µM

Q: What about the Activity (HK-2 [8]) of the same molecule?
A: Toxic

Q: What about the viability at 48 h, 100 µM [9] of the same molecule?
A: 62.1%

Q: What about the Activity [10] of the same molecule?
A: Non-Toxic

Q: And the Activity [11]?
A: Non-Toxic

Q: And the Activity [12]?
A: Non-Toxic

Q: And the Activity (Mus musculus [13])?
A: Active

Q: What about the Activity (Mus musculus [14]) of the same molecule?
A: Active

Q: And the Activity (Mus musculus [15])?
A: Active

Q: What about the Activity (Mus musculus [16]) of the same molecule?
A: Active

Q: And the Tmax [17]?
A: 1.15 h

Q: What about the Cmax [18] of the same molecule?
A: 2250 ng/mL

Q: And the half-life [19]?
A: 7.88 h

Q: And the AUC(0-inf) [20]?
A: 18700 ng·h/mL

Q: What about the MRT inf [21] of the same molecule?
A: 10.2 h

Q: With `O=C(O)C/C=C/Cc1c(O)ccc2c1OC(c1csc3ccccc13)CC2=O` (stereo not drawn) as the molecule, how does the IC50 [1] read?
A: 0.65 µM

Q: Which inhibition at 5 µM [3] does the source give for `CC(C)=CCc1c(O)ccc2c1OC(c1cccs1)CC2=O` (stereo not drawn) here?
A: 19.8%

Q: With `CC(C)=CCc1c(O)ccc2c1OC(c1csc3ccccc13)CC2=O` (stereo not drawn) as the molecule, how does the inhibition at 5 µM [3] read?
A: 32%

Q: With `O=C(O)/C=C/Cc1cccc2c1OC(c1cccs1)CC2=O` (stereo not drawn) as the molecule, how does the IC50 [1] read?
A: 2.5 µM

Q: Which IC50 [2] does the source give for `O=C(c1cc(Cl)c(O)c(Cl)c1)N1CS(=O)(=O)c2ccccc21` [DOTINURAD] here?
A: 0.04 µM

Q: Which IC50 [1] does the source give for `C/C(=C\Cc1c(O)ccc2c1OC(c1ccc(Br)c3ccccc13)CC2=O)C(=O)O` (stereo not drawn) here?
A: 0.19 µM

Q: And the inhibition [4]?
A: 8.21%

Q: And the Activity (Mus musculus [6])?
A: 397.87 µM

Q: What about the Activity (Mus musculus [7]; time 7.0 day) of the same molecule?
A: Active

Q: And the Activity (HK-2 [8])?
A: Toxic

Q: And the Activity (HK-2 [22])?
A: Non-Toxic

Q: What about the Activity [10] of the same molecule?
A: Non-Toxic

Q: What about the Activity [11] of the same molecule?
A: Non-Toxic

Q: What about the Activity [12] of the same molecule?
A: Non-Toxic

Q: What about the Activity (Mus musculus [13]) of the same molecule?
A: Active

Q: And the Activity (Mus musculus [14])?
A: Active

Q: And the Activity (Mus musculus [15])?
A: Active

Q: What about the Activity (Mus musculus [16]) of the same molecule?
A: Active

Q: And the Tmax [17]?
A: 1.5 h

Q: What about the Cmax [18] of the same molecule?
A: 1380 ng/mL

Q: And the half-life [19]?
A: 4.66 h

Q: And the AUC(0-inf) [20]?
A: 8270 ng·h/mL

Q: And the MRT inf [21]?
A: 7.54 h

Q: Which IC50 [1] does the source give for `C/C(=C\Cc1c(O)ccc2c1OC(c1csc3ccccc13)CC2=O)C(=O)O` (stereo not drawn) here?
A: 0.23 µM

Q: What about the inhibition [4] of the same molecule?
A: 8.33%

Q: What about the Activity (Mus musculus [6]) of the same molecule?
A: 392.02 µM

Q: And the Activity (Mus musculus [7]; time 7 day)?
A: 599.6 µM

Q: And the Activity (HK-2 [8])?
A: Toxic

Q: And the Activity (HK-2 [22])?
A: Non-Toxic

Q: What about the Activity [10] of the same molecule?
A: Non-Toxic

Q: What about the Activity [11] of the same molecule?
A: Non-Toxic

Q: What about the Activity [12] of the same molecule?
A: Non-Toxic

Q: What about the Activity (Mus musculus [13]) of the same molecule?
A: Active

Q: And the Activity (Mus musculus [14])?
A: Active

Q: And the Activity (Mus musculus [15])?
A: Active

Q: And the Activity (Mus musculus [16])?
A: Active

Q: For `C/C(=C\Cc1cccc2c1OC(c1ccc(O)cc1)CC2=O)C(=O)O` (stereo not drawn), which IC50 [1] is on record?
A: 2.68 µM

Q: For `O=C(O)/C=C/Cc1cccc2c1OC(c1cc3ccccc3s1)CC2=O` (stereo not drawn), which IC50 [1] is on record?
A: 1.89 µM

Q: For `O=C(O)/C=C/Cc1c(O)ccc2c1OC(c1ccc(O)cc1)CC2=O` (stereo not drawn), which IC50 [1] is on record?
A: 3.02 µM

Q: For `O=C(O)/C=C/Cc1cccc2c1OC(c1ccc(Br)c3ccccc13)CC2=O` (stereo not drawn), which IC50 [1] is on record?
A: 0.73 µM

Q: For `C/C(=C\Cc1c(O)ccc2c1OC(c1ccc(Br)cc1)CC2=O)C(=O)O` (stereo not drawn), which IC50 [1] is on record?
A: 0.83 µM

Q: For `O=C(O)CSc1nnc(Br)n1-c1ccc(C2CC2)c2ccccc12`, which Activity (Mus musculus [6]) is on record?
A: 380.14 µM

Q: And the Activity (Mus musculus [7]; time 7 day)?
A: 696.8 µM

Q: What about the Activity [10] of the same molecule?
A: Non-Toxic

Q: What about the Activity [11] of the same molecule?
A: Non-Toxic

Q: And the Activity [12]?
A: Non-Toxic

Q: What about the Activity (Mus musculus [13]) of the same molecule?
A: inactive

Q: And the Activity (Mus musculus [14])?
A: inactive

Q: What about the Activity (Mus musculus [15]) of the same molecule?
A: inactive

Q: And the Activity (Mus musculus [16])?
A: inactive

From ChEMBL document CHEMBL5614401 (Eur J Med Chem, 2024)
